Test results: US8933122B2, “Use of cationic surfactants as sporicidal agents” (Laboratorios Miret, S.A., priority 2008, dated 2015)

Columns and labels:
[1] = test system: endospores from Geobacillus stearothermophilus ATCC 12980; assay: Sporicidal activity, quantitative suspension test EN 13704:2002 (Example 3); format: cell-based; conditions: 40° C.; for calculated reduction (R) R=N×0.1/Na: 60 minutes; for Test of LAE sporicidal activity (Na), surviving spores count: water as interfering substance, N 1.3 × 10^6 cfu/mL
Experimental: The determination of the sporicidal activity of LAE has been carried out according to the European standard EN 13704:2002: “Chemical disinfectant—Quantitative suspension test for the evaluation of sporicidal activity of chemical disinfectants used in food, industrial, domestic and institutional areas—Test method and requirements”.
A test suspension containing endospores from Geobacillus stearothermophilus ATCC 12980 was prepared from a culture grown on a nutrient agar, to which additional sporulation enhancement ingredients were added. Plates were harvested with sterile water and endospores were purified by repeated centrifugations and resuspensions in water.
Neutralizer. The neutralizer mixture consisted of 30 g/L polysorbate 80 in water. The solution was intended to neutralize any chemicals so that these would not affect subsequent growth of the bacteria.
The sporicidal activity of a given product is defined by its capacity to reduce at least by 10^3 the amount of Geobacillus stearothermophilus bacterial spores in suspension, in the conditions established in the method.
The product was in contact with a suspension of bacterial spores during an established period of time of 60 minutes. An interfering substance can be added to the suspension, in this case water. Next, the effect of the product is neutralized by adding a neutralizer previously chosen, preceding to the surviving spores count.
• 1. Spore suspension obtained from a spored-form culture of Geobacillus stearothermophilus • 2. Count of the spore suspension of Geobacillus stearothermophilus. • 3. The possible toxic effect of the neutralizer on the spores in the absence of the product is valued. • 4. Validation of the dilution-neutralisation method. • 5. Evaluation of the inhibitory sporicide effect of the product. • 6. Result calculation. Results: Results are expressed as the reduction of viability of the spore suspension in regards to:
Tabulation of the Method and Test Validation Results (at 40° C.): […]

[2] = test system: Arthrobacter oxydans ATCC 8010; conditions: Gram + Bacteria; cited from earlier work
[3] = test system: Bacillus cereus var mycoide ATCC 11778; conditions: Gram + Bacteria; cited from earlier work
[4] = test system: Listeria monocytogenes ATCC 7644; conditions: Gram + Bacteria; cited from earlier work
[5] = test system: Staphylococcus aureus ATCC 6538; conditions: Gram + Bacteria; cited from earlier work
[6] = test system: Micrococcus luteus ATCC 9631; conditions: Gram + Bacteria; cited from earlier work
[7] = test system: Lactobacillus delbrueckii ssp lactis CECT 372; conditions: Gram + Bacteria; cited from earlier work
[8] = test system: Leuconostoc mesenteroides CETC 912; conditions: Gram + Bacteria; cited from earlier work
[9] = test system: Alcaligenes faecalis ATCC 8750; conditions: Gram − Bacteria; cited from earlier work
[10] = test system: Bordetella bronchiseptica ATCC 4617; conditions: Gram − Bacteria; cited from earlier work
[11] = test system: Citrobacter freundii ATCC 22636; conditions: Gram − Bacteria; cited from earlier work
[12] = test system: Enterobacter aerogenes CECT 689; conditions: Gram − Bacteria; cited from earlier work
[13] = test system: Escherichia coli ATCC 8739; conditions: Gram − Bacteria; cited from earlier work
[14] = test system: Klebsiella pneumoniae var pneumoniae CECT 178; conditions: Gram − Bacteria; cited from earlier work
[15] = test system: Pseudomonas aeruginosa ATCC 9027; conditions: Gram − Bacteria; cited from earlier work
[16] = test system: Mycobacterium phlei ATCC 41423; conditions: listed under Gram − Bacteria; cited from earlier work
[17] = test system: Aspergillus niger ATCC 14604; conditions: Fungi; cited from earlier work
[18] = test system: Aureobasidium pullulans ATCC 9348; conditions: Fungi; cited from earlier work
[19] = test system: Chaetonium globosum ATCC 6205; conditions: Fungi; cited from earlier work
[20] = test system: Penicillium chrysogenum CECT 2802; conditions: Fungi; cited from earlier work
[21] = test system: Candida albicans ATCC 10231; conditions: Yeast; cited from earlier work
[22] = test system: Rhodotorula rubra CECT 1158; conditions: Yeast; cited from earlier work
[23] = test system: Saccharomyces cerevisiae ATCC 9763; conditions: Yeast; cited from earlier work
[24] = rats; cited from earlier work

Structure (SMILES): CCCCCCCCCCCC(=O)N[C@@H](CCCN=C(N)N)C(=O)OCC.Cl [LAE, ethyl ester of the lauramide of the arginine monohydrochloride]
- calculated reduction (R) R=N×0.1/Na ([1]; 58 μg/ml of LAE): < 10^3 cfu/mL
- calculated reduction (R) R=N×0.1/Na ([1]; 115 μg/ml of LAE): < 10^3 cfu/mL
- calculated reduction (R) R=N×0.1/Na ([1]; 173 μg/ml of LAE): > 10^3 cfu/mL
- calculated reduction (R) R=N×0.1/Na ([1]; 230 μg/ml of LAE): > 10^3 cfu/mL
- calculated reduction (R) R=N×0.1/Na ([1]; 460 μg/ml of LAE): > 10^3 cfu/mL
- concentration displaying sporicidal activity (reduction equal to or above 10^3) ([1]; 60 minutes contact, EN 13704:2002): ≥ 173 μg/ml
- Test of LAE sporicidal activity (Na), surviving spores count ([1]; LAE 58 μg/mL, 60 minutes contact): 1.0 × 10^5 cfu/mL
- Test of LAE sporicidal activity (Na), surviving spores count ([1]; LAE 115 μg/mL, 60 minutes contact): 5.2 × 10^4 cfu/mL
- Test of LAE sporicidal activity (Na), surviving spores count ([1]; LAE 173 μg/mL, 60 minutes contact): <10^2 cfu/mL
- Test of LAE sporicidal activity (Na), surviving spores count ([1]; LAE 230 μg/mL, 60 minutes contact): <10^2 cfu/mL
- Test of LAE sporicidal activity (Na), surviving spores count ([1]; LAE 460 μg/mL, 60 minutes contact): <10^2 cfu/mL
- M.I.C. [2]: 64 ppm
- M.I.C. [3]: 32 ppm
- M.I.C. [4]: 10 ppm
- M.I.C. [5]: 32 ppm
- M.I.C. [6]: 128 ppm
- M.I.C. [7]: 16 ppm
- M.I.C. [8]: 32 ppm
- M.I.C. [9]: 64 ppm
- M.I.C. [10]: 128 ppm
- M.I.C. [11]: 64 ppm
- M.I.C. [12]: 32 ppm
- M.I.C. [13]: 32 ppm
- M.I.C. [14]: 32 ppm
- M.I.C. [15]: 64 ppm
- M.I.C. [16]: 2 ppm
- M.I.C. [17]: 32 ppm
- M.I.C. [18]: 16 ppm
- M.I.C. [19]: 16 ppm
- M.I.C. [20]: 128 ppm
- M.I.C. [21]: 16 ppm
- M.I.C. [22]: 16 ppm
- M.I.C. [23]: 32 ppm
- absorption and metabolism [24]: fast absorption and metabolization into naturally-occurring amino acids and the fatty acid lauric acid, which are eventually excreted as carbon dioxide and urea
